# In US6703414B2, “Device and method for treating restenosis” (Arizona Board of Regents on behalf of the University of …, priority 2001, dated 2004):
# What was measured:
# C57BL6 mice = assay: in vivo; conditions: for Maximum tolerated dose mg/kg ip qD × 4: MTD = >10% body weight loss, C57BL6 mice; for Ratio liver toxicity/lymphocyte toxicity: liver toxicity relative to wortmannin/decrease in blood lymphocytes relative to wortmannin
# Text: (§1) Highlighted are the compounds being made for antitumor testing.
# [1] = test system: NCI cell panel (60 cell lines); assay: cytotoxicity NCI cell panel, MTT assay; conditions: 48 h, read-out: cytotoxicity NCI cell panel IC50
# Text: as §1
# mTOR = mTOR (Homo sapiens, UniProt P42345); assay: mTOR inhibition; assay type: biochemical
# Text: as §1
# in vivo = conditions: C57BL6, mouse, in vivo, ip
# Text: as §1
SMILES,Maximum tolerated dose mg/kg ip qD × 4 (C57BL6 mice) [mg/kg],Ratio liver toxicity/lymphocyte toxicity (C57BL6 mice),IC50 [1] [µM],IC50 (mTOR) [µM],MTD at 4 days (in vivo) [mg/kg]
COC[C@H]1OC(=O)/C(=C/SCc2ccccc2)C2=C(O)C(=O)C3=C([C@H](OC(C)=O)C[C@]4(C)C(=O)CC[C@@H]34)[C@]21C [DJM2-170],9,1.5,–,–,–
"COC[C@H]1OC(=O)/C(=C/N2CCCC2)C2=C(O)C(=O)C3=C([C@H](OC(C)=O)C[C@]4(C)C(=O)CC[C@@H]34)[C@]21C [DJM2-167, Acetic acid 6-hydroxy-1α-methoxymethyl-10β,13β-dimethyl-3,7,17-trioxo-4-pyrrolidin-1-yl-methylene-1,3,4,7,10,11β,12,13,14α,15,16,17-dodecahydro-2-oxa-cyclopenta[α]phenanthren-11-yl]",–,–,0.5,> 3,–
"C=CCN(/C=C1/C(=O)O[C@H](COC)[C@@]2(C)C1=C(O)C(=O)C1=C2[C@H](OC(C)=O)C[C@]2(C)C(=O)CC[C@@H]12)CC=C [DJM2-166, Acetic acid 4-diallylaminomethylene-6-hydroxy-1-α-methoxymethyl-10β,13β-dimethyl-3,7,17-trioxo-1,3,4,7,10,11β,12,13,14α,15,16,17-dodecahydro-2-oxa-cyclopenta[α]phenanthren-11-yl ester]",–,–,2.2,> 3,–
"COC[C@H]1OC(=O)c2coc3c2[C@@]1(C)C1=C(C3=O)[C@@H]2CCC(=O)[C@@]2(C)C[C@H]1OC(C)=O [wortmannin, reference compound]",–,–,–,–,2.5
COC[C@H]1OC(=O)/C(=C/NC(C)C(=O)O)C2=C(O)C(=O)C3=C([C@H](OC(C)=O)C[C@]4(C)C(=O)CC[C@@H]34)[C@]21C (stereo partly drawn) [DJM2-177],6,0.1,–,–,–
